What was measured:
ErbB2 or EGFR = biological target: T1, ErbB2 or EGFR; assay: ErbB family substrate phosphorylation enzyme assay (HTRF), Method A or Method B; assay type: biochemical
T1 construct: enzymes purified from a baculovirus expression system; Reagent production was conducted essentially as described in Brignola, P. S., et al, (2002) J. Biol. Chem. 277(2): 1576-1585
Method in brief: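 Baculovirus-expressed EGFR or ErbB2 (0.8 or 10 nM in enzyme mix) phosphorylates biotinylated Peptide C with 20 µM ATP and 0.8 µM peptide (substrate-mix levels), MnCl2, pH 7.5. Reaction ran 90 min at 20 °C with EDTA stop and HTRF anti-phosphotyrosine read. Method A: enzyme added last; Method B: 1 h enzyme–compound preincubation.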

[1] = test system: BT474 and HN5 tumor cell lines; assay: Methylene blue growth inhibition assay (cellular Method A); assay type: cell-based, Human; settings: Homo sapiens, BT-474, 72 h, 3 days, read-out: Activity (Method): growth inhibition IC50 class
Method in brief: (§1)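 Growth inhibition measured by methylene blue staining of biomass (OD 620) after 3 days' compound exposure at 37° C, final DMSO 0.3%. Cell lines: BT474 (10,000/well), HN5 (3,000/well) and Colo205, all in DMEM with 10% FBS; IC50 fitted by nonlinear regression against vehicle-treated wells.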

Colo205 tumor cell lines = assay: Methylene blue growth inhibition assay (cellular Method A), Colo205; assay type: cell-based, Human; settings: Homo sapiens, COLO 205, 72 h, 3 days, read-out: Activity (Method): growth inhibition IC50 class
Method in brief: as §1

[2] = Method B: enzyme mix pre-incubated with compound 1 hour at 20° C., started with substrate mix
[3] = Method A: substrate mix added first, reaction started with enzyme mix

IC50 [1] | IC50 (Colo205 tumor cell lines) | Compound | Activity (Method): pIC50 class against ErbB2 or EGFR (ErbB2 or EGFR; [2]) | Activity (Method): pIC50 class against ErbB2 or EGFR (ErbB2 or EGFR; [3])
< 100 nM | 100 to 1000 nM | O=C(Nc1cccc(-c2nn3ccccc3c2-c2ccnc(Nc3ccc4nn[nH]c4c3)n2)c1)c1c(F)cccc1F [Example 31, N-(3-{3-[2-(1H-1,2,3-benzotriazol-5-ylamino)-4-pyrimidinyl]pyrazolo[1,5-a]pyridin-2-yl}phenyl)-2,6-difluorobenzamide] | +++ (B) (at least one pIC50 measurement of greater than 7 against either ErbB2 or EGFR) | 
< 100 nM | 100 to 1000 nM | NC1Cc2ccc(Nc3nccc(-c4c(-c5cccc(NC(=O)c6c(F)cccc6F)c5)nn5ccccc45)n3)cc2C1 (stereo not drawn) [Example 177, N-[3-(3-{2-[(2-Amino-2,3-dihydro-1H-inden-5-yl)amino]-4-pyrimidinyl}pyrazolo[1,5-a]pyridin-2-yl)phenyl]-2,6-difluorobenzamide] | +++ (B) (at least one pIC50 measurement of greater than 7 against either ErbB2 or EGFR) | 
< 100 nM | 100 to 1000 nM | COc1ccc(Nc2nccc(-c3c(-c4cccc(NC(=O)c5c(F)cccc5F)c4)nn4ccccc34)n2)cc1N1CCN(C)CC1 [Example 201, 2,6-Difluoro-N-{3-[3-(2-{[4-(methyloxy)-3-(4-methyl-1-piperazinyl)phenyl]amino}-4-pyrimidinyl)pyrazolo[1,5-a]pyridin-2-yl]phenyl}benzamide] | +++ (B) (at least one pIC50 measurement of greater than 7 against either ErbB2 or EGFR) | 
< 100 nM | 100 to 1000 nM | CCN(CC)CCCOc1ccc(Nc2nccc(-c3c(-c4cccc(NC(=O)c5c(F)cccc5F)c4)nn4ccccc34)n2)cc1F [Example 131, N-[3-(3-{2-[(4-{[3-(Diethylamino)propyl]oxy}-3-fluorophenyl)amino]-4-pyrimidinyl}pyrazolo[1,5-a]pyridin-2-yl)phenyl]-2,6-difluorobenzamide] | +++ (B) (at least one pIC50 measurement of greater than 7 against either ErbB2 or EGFR) | 
< 100 nM | 100 to 1000 nM | O=C(Nc1cccc(-c2nn3ccccc3c2-c2ccnc(Nc3ccc(OCCN4CCCC4=O)c(F)c3)n2)c1)c1c(F)cccc1F [Example 133, 2,6-Difluoro-N-[3-(3-{2-[(3-fluoro-4-{[2-(2-oxo-1-pyrrolidinyl)ethyl]oxy}phenyl)amino]-4-pyrimidinyl}pyrazolo[1,5-a]pyridin-2-yl)phenyl]benzamide] | +++ (B) (at least one pIC50 measurement of greater than 7 against either ErbB2 or EGFR) | 
< 100 nM | > 1000 nM | Cn1cccc1C(=O)Nc1cccc(-c2nn3ccccc3c2-c2ccnc(Nc3cccc(C#N)c3)n2)c1 [Example 150, N-{3-[3-(2-(3-Cyanophenyl)amino-4-pyrimidinyl)-pyrazolo[1,5-b]pyridin-2-yl]-phenyl}-1-methyl-1H-pyrrole-2-carboxamide] | +++ (B) (at least one pIC50 measurement of greater than 7 against either ErbB2 or EGFR) | 
< 100 nM | 100 to 1000 nM | CN1CCN(c2cccc(Nc3nccc(-c4c(-c5cccc(NC(=O)c6c(F)cccc6F)c5)nn5ccccc45)n3)c2)CC1 [Example 109, 2,6-Difluoro-N-{3-[3-(2-{[3-(4-methyl-1-piperazinyl)-phenyl]amino}-4-pyrimidinyl)pyrazolo[1,5-a]pyridin-2-yl]phenyl}benzamide] | +++ (B) (at least one pIC50 measurement of greater than 7 against either ErbB2 or EGFR) | 
< 100 nM | 100 to 1000 nM | CN(C)CCCNc1ccc(Nc2nccc(-c3c(-c4cccc(NC(=O)c5c(F)cccc5F)c4)nn4ccccc34)n2)cc1F [Example 41, N-[3-(3-{2-[(4-{[3-(dimethylamino)propyl]amino}-3-fluorophenyl)amino]-4-pyrimidinyl}pyrazolo[1,5-a]pyridin-2-yl)phenyl]-2,6-difluorobenzamide] | +++ (B) (at least one pIC50 measurement of greater than 7 against either ErbB2 or EGFR) | 
100 to 1000 nM | > 1000 nM | O=C(Nc1cccc(-c2nn3ccccc3c2-c2ccnc(Nc3cccc(F)c3)n2)c1)c1cc(F)ccc1Cl [Example 11, 2-Chloro-5-fluoro-N-(3-{3-[2-(3-fluoro-phenylamino)-pyrimidin-4-yl]-pyrazolo[1,5-a]pyridin-2-yl}-phenyl)-benzamide] | +++ (B) (at least one pIC50 measurement of greater than 7 against either ErbB2 or EGFR) | 
< 100 nM | 100 to 1000 nM | CN(C)CCCOc1cccc(Nc2nccc(-c3c(-c4cccc(NC(=O)c5c(F)cccc5F)c4)nn4ccccc34)n2)c1 [Example 198, N-[3-(3-{2-[(3-{[3-(dimethylamino)propyl]oxy}phenyl)amino]-4-pyrimidinyl}pyrazolo[1,5-a]pyridin-2-yl)phenyl]-2,6-difluorobenzamide] | +++ (B) (at least one pIC50 measurement of greater than 7 against either ErbB2 or EGFR) | 
< 100 nM | < 100 nM | CCN1CCN(c2ccc(Nc3nccc(-c4c(-c5cccc(NC(=O)c6c(F)cccc6F)c5)nn5ccccc45)n3)cc2)CC1 [Example 107, N-{3-[3-(2-{[4-(4-ethyl-1-piperazinyl)phenyl]amino}-4-pyrimidinyl)pyrazolo[1,5-a]pyridin-2-yl]phenyl}-2,6-difluorobenzamide] | +++ (B) (at least one pIC50 measurement of greater than 7 against either ErbB2 or EGFR) | 
< 100 nM | > 1000 nM | O=C(Nc1cccc(-c2nn3ccccc3c2-c2ccnc(Nc3ccc4c(c3)CNCC4)n2)c1)c1ccccc1 [Example 62, N-(3-{3-[2-(1,2,3,4-Tetrahydro-7-isoquinolinylamino)-4-pyrimidinyl]pyrazolo[1,5-a]pyridin-2-yl}phenyl)benzamide] | +++ (B) (at least one pIC50 measurement of greater than 7 against either ErbB2 or EGFR) | 
100 to 1000 nM | > 1000 nM | Cc1cccc2c(-c3ccnc(Nc4cccc(F)c4)n3)c(-c3cccc(NC(=O)c4c(F)cccc4F)c3)nn12 [Example 156, 2,6-Difluoro-N-[3-(3-{2-[(3-fluorophenyl)amino]-pyrimidin-4-yl}-7-methylpyrazolo[1,5-a]pyridin-2-yl)phenyl]benzamide] |  | ++ (A) (at least one pIC50 measurement greater than 6 against either ErbB2 or EGFR but no measurement greater than pIC50 of 7)
< 100 nM | > 1000 nM | O=C(Nc1cccc(-c2nn3ccccc3c2-c2ccnc(Nc3ccc(O)c(Cl)c3)n2)c1)c1c(F)cccc1F [Example 86, N-[3-(3-{2-[(3-Chloro-4-hydroxyphenyl)amino]-4-pyrimidinyl}pyrazolo[1,5-a]pyridin-2-yl)phenyl]-2,6-difluorobenzamide] |  | +++ (A) (at least one pIC50 measurement of greater than 7 against either ErbB2 or EGFR)
< 100 nM | > 1000 nM | Cc1nc2cc(Nc3nccc(-c4c(-c5cccc(NC(=O)c6c(F)cccc6F)c5)nn5ccccc45)n3)ccc2s1 [Example 199, 2,6-Difluoro-N-[3-(3-{2-[(2-methyl-1,3-benzothiazol-5-yl)amino]-4-pyrimidinyl}pyrazolo[1,5-a]pyridin-2-yl)phenyl]benzamide] | +++ (B) (at least one pIC50 measurement of greater than 7 against either ErbB2 or EGFR) | 
< 100 nM | 100 to 1000 nM | O=C(Nc1cccc(-c2nn3ccccc3c2-c2ccnc(Nc3cccc(OCCN4CCCC4)c3)n2)c1)c1c(F)cccc1F [Example 136, 2,6-Difluoro-N-[3-(3-{2-[(3-{[2-(1-pyrrolidinyl)ethyl]oxy}phenyl)amino]-4-pyrimidinyl}pyrazolo[1,5-a]pyridin-2-yl)phenyl]benzamide] | +++ (B) (at least one pIC50 measurement of greater than 7 against either ErbB2 or EGFR) | 
100 to 1000 nM | > 1000 nM | CCS(=O)(=O)c1ccc(OC)c(Nc2nccc(-c3c(-c4cccc(NC(=O)c5c(F)cccc5F)c4)nn4ccccc34)n2)c1 [Example 121, N-{3-[3-(2-{[5-(ethylsulfonyl)-2-(methyloxy)phenyl]-amino}-4-pyrimidinyl)pyrazolo[1,5-a]pyridin-2-yl]phenyl}-2,6-difluorobenzamide] |  | +++ (A) (at least one pIC50 measurement of greater than 7 against either ErbB2 or EGFR)
> 1000 nM | > 1000 nM | O=C(Nc1cccc(-c2nn3ccccc3c2-c2ccnc(Nc3ccc(OCCCS(=O)(=O)O)c(Cl)c3)n2)c1)c1c(F)cccc1F [Example 161, 3-{[2-Chloro-4-({4-[2-(3-{[(2,6-difluorophenyl)carbonyl]amino}-phenyl)pyrazolo[1,5-a]pyridin-3-yl]-2-pyrimidinyl}amino)phenyl]oxy}-1-propanesulfonic acid] | +++ (B) (at least one pIC50 measurement of greater than 7 against either ErbB2 or EGFR) | 

Reference: patent US7812022B2 (GlaxoSmithKline LLC, priority 2004, dated 2010)
